The source of these data is patent publication US8895585B2, “Nicotinamide derivative or salt thereof” (FUJIFILM Corporation, priority 2010, dated 2014).

Some results are limits rather than exact numbers.

One experiment deals with female Lewis rats. Kind of experiment: Rat type-II-collagen-induced arthritis. Type of experiment: in vivo. The settings on record: oral administration at 10 mg/kg/day, once daily Day 7 to Day 20, hindlimb volume by plethysmometer, read-out: inhibition of hindlimb swelling compared with the control group. As to the method: The compounds were tested to examine effects upon rat type II collagen arthritis. To 3 mg/mL bovine type II collagen solution (Collagen Gijutsu Kenshu-Kai) dissolved in 0.05 mol/L acetic acid, an equal amount of Freund's incomplete adjuvant (Wako Pure Chemical Industries, Ltd.) was added to prepare an emulsion. A portion of the emulsion (0.5 ml) was intradermally injected into the tail bases of 7- or 8-week-old female Lewis rats (Charles River Laboratories Japan, Inc.) (Day 0). Each rat was subjected to the same treatment on Day 7 after the initial inoculation so as to induce arthritis. Each test compound was orally administered from Day 7 to Day 20 once daily. At a given time during the period from Day 7 to Day 21, the rat hindlimb volume was determined using a plethysmometer (UGO BASILE), and the result was designated as an arthritis index. The following compound group inhibited hindlimb swelling by 85% or greater compared with the control group in the case of oral administration at 10 mg/kg/day: the compounds of Example 4-17, Example 6-49, Example 6-117, Example 6-157, Example 6-249, Example 6-322, Example 6-375, and Example 6-395.

The subject of experiment [1] is 170 types of kinases excluding Syk. Put plainly: Kinase selectivity, Profiler Pro kits (Caliper). The settings on record: test compound 100 nM. Type of experiment: biochemical. As to the method: The concentrations of test compounds were adjusted to 100 nM. The test compounds were examined using Profiler Pro kits (Caliper) in terms of activity against each of 170 types of kinases excluding Syk. […] A compound (Example 6-157) having a kinase inhibitory rate of 75% or more with respect to 12 types of kinases was also obtained. Further, an inhibitor (Example 6-373) having a kinase inhibitory rate of 75% or more with respect to 24 types of kinases was obtained.

The subject of another experiment is male DBA/1J mice. Kind of experiment: Mouse type-II collagen-induced arthritis (prophylactic and therapeutic administration test). It is filed as in vivo. The conditions noted are these: for advancement of arthritis after the onset (arthritis score): prophylactic administration test, once daily Day 21 to Day 34, 1 to 30 mg/kg/day. How it is done: The compounds synthesized in Example 8-1, Example 4-17, and Example 6-49 were tested to examine effects upon mouse type II collagen arthritis. To 2 mg/mL bovine type II collagen solution (Koken Co., Ltd.) dissolved in 0.1 mol/L acetic acid, an equal amount of Freund's complete adjuvant (Wako Pure Chemical Industries, Ltd.) was added to prepare an emulsion. A portion of the emulsion was intradermally injected into the tail bases of 7- or 8-week-old male DBA/1J mice (Charles River Laboratories Japan, Inc.) at a dose of 0.2 mL per mouse (antigen amount: 0.2 mg/mouse) on Day 0 and Day 21 twice, so as to induce arthritis. Each compound was administered once daily from Day 21 to Day 34 in the prophylactic administration test (1 to 30 mg/kg/day), and administered once daily from Day 27 to Day 35 in the therapeutic administration test (25 mg/kg/day). Arthritis scores for four limbs for each mouse were determined starting from Day 21. Specifically, the total score of four limbs of a mouse was designated as the individual arthritis score (12 points at a maximum per mouse) based on the following: score 0: no change; score 1: swelling of 1 or 2 digit joints or mild swelling of the carpal region/the ankle region alone; score 2: swelling of joints of at least 3 digits or obvious swelling of the carpal region/the ankle region; and score 3: obvious swelling over forelimbs or hindlimbs.

The test system of the next experiment is female BALB/c mice. Put plainly: Mouse type-II-collagen-antibody-induced arthritis. It is filed as in vivo. The conditions noted are these: intraperitoneal 30 mg/kg/day, twice daily, Day 0 to Day 13. How it is done:
The compound synthesized in Example 8-1 was tested to examine effects upon mouse-type-II-collagen-antibody-induced arthritis. An anti-type II collagen antibody mixture (Chondrex) was intraperitoneally injected into 7-week-old female BALB/c mice (Charles River Laboratories Japan, Inc.) (1.5 mg per mouse) (Day 0). An LPS solution 0111:B4 (Chondrex) (50 μg) was intraperitoneally injected thereinto three days later (Day 3), thereby inducing arthritis. Swelling scores were determined for four limbs of each mouse once daily from Day 3 to Day 14. Specifically, evaluation was carried out using a twelve-point scale for the sum of the scores for the four limbs for each mouse: 0 point: no change; 1 point: mild erythema/swelling on the carpal region or the ankle/calcaneal region; 2 points: obvious swelling on the carpal region or the ankle/calcaneal region; 3 points: severe swelling over forelimbs or hindlimbs. The compound synthesized in Example 8-1 was intraperitoneally administered at 30 mg/kg/day twice daily on consecutive days (from Day 0 to Day 13). The bone destruction score was determined based on soft X-ray images of four limbs taken on Day 14. […]

The target of experiment [2] is T1, glutathione S-transferase (GST)-fused full-length human Syk protein (Homo sapiens, UniProt P43405).
T1 construct: (GST)-fused full-length human Syk protein; GST (glutathione S-transferase); purchased Carna Biosciences
Put plainly: Syk enzyme assay. It is filed as biochemical. The settings on record: read-out: Syk-inhibitory activity (IC50). In short, it runs like this: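 IC50 values come from a time-resolved FRET readout (615 and 665 nm) of substrate phosphorylation, measured after an EDTA stop and 1 h antibody binding. The kinase reaction ran 40 min at room temperature with 27 μM ATP and 0.4 μM biotin-peptide, following a 15 min compound preincubation with baculovirus-made GST-full-length human Syk.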

The IC50 is the concentration at which inhibition is half-maximal.

For `CC(C)C[C@H](CN)Nc1nc(Nc2ccc3ncccc3c2)c(C(N)=O)cc1F` [Example 6-117, (R)-6-((1-amino-4-methylpentan-2-yl)amino)-5-fluoro-2-((quinolin-6-yl)amino)nicotinamide], the inhibition in vivo at 10 mg/kg/day with female Lewis rats was not below 85%.
With `C[C@H](N)[C@H](Nc1nc(Nc2cncc(-n3cccn3)c2)c(C(N)=O)cc1F)C1CC1` [Example 6-373, 2-((5-(1H-pyrazol-1-yl)pyridin-3-yl)amino)-6-(((1R,2S)-2-amino-1-cyclopropylpropyl)amino)-5-fluoronicotinamide], the “number of kinases with kinase inhibitory rate of 75% or more” value in experiment [1] is given as 24 types of kinases.
Take `Cc1ccc(Nc2nc(N[C@@H]3CCCC[C@@H]3N)c(F)cc2C(N)=O)cn1` (relative stereo) [Example 4-17, 6-(cis-2-aminocyclohexylamino)-5-fluoro-2-(6-methylpyridin-3-ylamino)nicotinamide]: in the experiment on female Lewis rats, the inhibition in vivo at 10 mg/kg/day was not below 85%. Also, in the experiment on male DBA/1J mice, the “advancement of arthritis after the onset (arthritis score)” value (“advancement of arthritis after the onset” below) is recorded as “strongly inhibited”.
For `Cc1cncc(Nc2nc(N[C@@H]3CCCC[C@@H]3N)c(F)cc2C(N)=O)c1` (relative stereo) [Example 6-49, 6-(cis-2-aminocyclohexylamino)-5-fluoro-2-(5-methylpyridin-3-ylamino)nicotinamide], the inhibition in vivo at 10 mg/kg/day with female Lewis rats is not below 85%. Also, the “advancement of arthritis after the onset” value in the experiment on male DBA/1J mice is listed as “strongly inhibited”. Moreover, the “advancement of arthritis (arthritis score)” value in the experiment on male DBA/1J mice (therapeutic administration test, once daily Day 27 to Day 35, 25 mg/kg/day) is on record as “strongly inhibited”.
Consider `NC(=O)c1cc(F)c(N[C@@H]2CCCC[C@@H]2N)nc1Nc1cnc(N2CCOCC2)c(F)c1` [Example 6-395, 6-(((1R,2S)-2-aminocyclohexyl)amino)-5-fluoro-2-((5-fluoro-6-morpholinopyridin-3-yl)amino)nicotinamide], for which the inhibition in vivo at 10 mg/kg/day with female Lewis rats is not below 85%.
For the molecule `COCCOc1cc(Nc2nc(N[C@@H](CN)CC(C)C)c(F)cc2C(N)=O)ccn1` [Example 6-157], the “number of kinases with kinase inhibitory rate of 75% or more” value in experiment [1] was 12 types of kinases. For the same molecule, the inhibition in vivo at 10 mg/kg/day in the experiment with female Lewis rats was not below 85%.
For `COc1cc(Nc2nc(NCCN)c(F)cc2C(N)=O)cc(OC)c1` [Example 8-1, 6-(2-aminoethylamino)-2-(3,5-dimethoxyphenylamino)-5-fluoronicotinamide], in the experiment with female BALB/c mice (scored Day 3 to Day 14), the “increase in the swelling score” value is “almost completely inhibited”. Moreover, the “increase in the bone destruction score” value in the experiment on female BALB/c mice (soft X-ray images on Day 14) is listed as “almost completely inhibited”. Moreover, the “advancement of arthritis after the onset” value in the experiment on male DBA/1J mice is on record as “strongly inhibited”. In addition, in experiment [2], the concentration for half-maximal inhibition (IC50) is not above 1000 nM.
For the molecule `CCC[C@@H](Nc1nc(Nc2ccnc(OC)c2)c(C(N)=O)cc1F)[C@H](C)N` [Example 6-249, 6-(((2S,3R)-2-aminohexane-3-yl)amino)-5-fluoro-2-((2-methoxypyridin-4-yl)amino)nicotinamide], the inhibition in vivo at 10 mg/kg/day with female Lewis rats is not below 85%.
In the case of `CCn1ncc2cc(Nc3nc(N[C@@H](CN)CC(C)C)c(F)cc3C(N)=O)ccc21` [Example 6-322, (R)-6-((1-amino-4-methylpentan-2-yl)amino)-2-((1-ethyl-1H-indazol-5-yl)amino)-5-fluoronicotinamide], the inhibition in vivo at 10 mg/kg/day in the experiment on female Lewis rats was not below 85%.
On to `Cc1ncc(Nc2nc(N[C@@H]3CCCC[C@@H]3N)c(F)cc2C(N)=O)cc1-n1nccn1` [Example 6-375, 6-(((1R,2S)-2-aminocyclohexyl)amino)-5-fluoro-2-((6-methyl-5-(2H-1,2,3-triazol-2-yl)pyridin-3-yl)amino)nicotinamide], for which the inhibition in vivo at 10 mg/kg/day in the experiment on female Lewis rats is not below 85%.
